The series in a line: Third PK study: intravenous dose on day 1 or on day 6 after 5 days oral dosing. The series is classed as in vivo, female Swiss Albino mice. Conditions: for half-life / clearance / Vd / AUC(0-inf) / AUC(0-t) / C0: female, Swiss Albino, mouse, plasma, iv, 5 mg/kg. Here is the method:
In a third study female Swiss Albino mice were administered intravenously (bolus, 5 mL/kg) dose of 5 mg/kg of the compound of formula (I). Group 1 (9 mice) received a single i.v. dose administration on day 1. Group 2 (9 mice) received daily oral administration of 10 mg/kg of the compound of formula (I) from day 1 to day 5 following by a single i.v. dose administration of 5 mg/kg of the compound of formula (I) on day 6. PK samples were collected on day 1 for group 1 and on day 6 for group 2. The formulation vehicle consisted of ethanol, PEG 400 and citric acid 20 mM (10/10/80; v/v/v) in water for injection (WFI). Blood samples were taken pre-dose and at 0.083, 0.25, 0.5, 1, 2, 6, 12, and 24 h post-dose administration (3 mice/time point). In each of the three studies blood was collected via the sephanous vein into K2-EDTA tubes kept on ice until centrifugation at 4° C. Plasma was stored at ap-proximately-80° C. […] PK parameters were calculated using Phoenix® WinNonLin 6.4. PK analysis was based on sparse sampling.

Setting [1] is: Group 1, Day 1: single 5 mg/kg i.v., female mice.
Where [2] appears, read: Group 2, Day 6: 5 mg/kg i.v. after 10 mg/kg oral daily for 5 days, female mice.

SMILES strings stand for the structures. Read-outs that look alike come from different tables or passages of the source.

In the case of `COc1cc(N2CCNCC2)ccc1Nc1ncc2c(n1)-n1ccc(C(=O)Nc3c(C)cccc3C)c1CC2` [compound of formula (I)], under “5 mg/kg i.v.”, the “concentrations at 24 hours lower than C0” value is on record as “more than 100 fold”. Besides, the “maximum AUCinf extrapolation” value (5 mg/kg i.v.) is at most 2.54%. The AUC_% extrapolated is, setting by setting: under setting [1], 2.54%; under setting [2], 1.65%. Also, the Clast runs as follows: under setting [1], 5.4 ng/mL; under setting [2], 4.29 ng/mL. For the same compound, the half-life is 4 to 4.7 h (5 mg/kg i.v., both groups, read-out: half-life); 4.7 h (Group 1, Day 1: single 5 mg/kg i.v., female mice, read-out: T1/2 (converted)); 4 h (Group 2, Day 6: 5 mg/kg i.v. after 10 mg/kg oral daily for 5 days, female mice, read-out: T1/2 (converted)). For the same compound, the clearance reads like this: (5 mg/kg i.v., both groups, read-out: plasma clearance) 55.4 to 57.9 mL/min/kg; (Group 1, Day 1: single 5 mg/kg i.v., female mice, read-out: CL) 57.9 mL/min/kg; (Group 2, Day 6: 5 mg/kg i.v. after 10 mg/kg oral daily for 5 days, female mice, read-out: CL) 55.4 mL/min/kg. Moreover, the Vd is, setting by setting: (5 mg/kg i.v., both groups, read-out: volume of distribution) 15.4 to 19 L/kg; (Group 1, Day 1: single 5 mg/kg i.v., female mice, read-out: Vss) 19 L/kg; (Group 2, Day 6: 5 mg/kg i.v. after 10 mg/kg oral daily for 5 days, female mice, read-out: Vss) 15.4 L/kg. Besides, the AUC(0-inf) by setting is: under setting [1], 1440 ng·h/mL; under setting [2], 1500 ng·h/mL. The AUC(0-t) was determined as 1400 ng·h/mL under setting [1] and 1480 ng·h/mL under setting [2]. In addition, the C0 under setting [1] was determined as 636 ng/mL and the C0 under setting [2] was 627 ng/mL.

Usually AUC(0-inf) stands for total exposure, with the tail of the curve extrapolated. A high value points to more exposure. In general, AUC(0-t) refers to exposure summed from dosing to a finite time, without extrapolation to infinity. Read a high AUC(0-t) as more exposure.

Source of the values: patent US20250057844A1, “METHODS OF TREATING NEOPLASTIC DISEASES” (SILLAJEN, INC., priority 2021, published 2025).
